From ChEMBL document CHEMBL5154765, “Design, synthesis, and biological evaluation of novel spiro[pyrrolidine-2,3'-quinolin]-2'-one derivatives as potential chitin synthase inhibitors and antifungal agents” (Eur J Med Chem, 2022)
Values after ≈ are worked out from the molar mass of the structure shown.

How the values were obtained:
[1] = test system: Candida tropicalis; assay: Inhibition of Candida tropicalis ATCC750 chitin synthase at 300 ug/ml using UDP-GlcNAc as substrate incubated for 1 hr by microplate reader analysis relative to control; conditions: dose 300.0 µg/ml
[2] = Inhibition of Candida tropicalis ATCC750 chitin synthase using UDP-GlcNAc as substrate incubated for 1 hr by microplate reader analysis
[3] = test system: Candida albicans; assay: Antifungal activity against Candida albicans ATCC 76615 assessed as reduction in fungal growth incubated for 24 hrs by two fold broth dilution method; format: functional
[4] = test system: Aspergillus flavus; assay: Antifungal activity against Aspergillus flavus ATCC 16870 assessed as reduction in fungal growth incubated for 24 hrs by two fold broth dilution method; format: functional
[5] = test system: Aspergillus fumigatus; assay: Antifungal activity against Aspergillus fumigatus GIMCC 3.19 assessed as reduction in fungal growth incubated for 24 hrs by two fold broth dilution method; format: functional
[6] = test system: Cryptococcus neoformans; assay: Antifungal activity against Cryptococcus neoformans ATCC 32719 assessed as reduction in fungal growth incubated for 24 hrs by two fold broth dilution method; format: functional
[7] = test system: Candida albicans; assay: Antifungal activity against Candida albicans ATCC 76615 assessed as reduction in fungal growth in presence of sorbitol incubated for 24 hrs by two fold broth dilution method; format: functional
[8] = test system: Aspergillus flavus; assay: Antifungal activity against Aspergillus flavus ATCC 16870 assessed as reduction in fungal growth in presence of sorbitol incubated for 24 hrs by two fold broth dilution method; format: functional
[9] = test system: Aspergillus fumigatus; assay: Antifungal activity against Aspergillus fumigatus GIMCC 3.19 assessed as reduction in fungal growth in presence of sorbitol incubated for 24 hrs by two fold broth dilution method; format: functional
[10] = test system: Cryptococcus neoformans; assay: Antifungal activity against Cryptococcus neoformans ATCC 32719 assessed as reduction in fungal growth in presence of sorbitol incubated for 24 hrs by two fold broth dilution method; format: functional
[11] = test system: Candida albicans; assay: Antifungal activity against fluconazole resistant Candida albicans ATCC 76615 assessed as reduction in fungal growth incubated for 24 hrs by two fold broth dilution method; format: functional
[12] = test system: Aspergillus flavus; assay: Antifungal activity against fluconazole resistant Aspergillus flavus ATCC 16870 assessed as reduction in fungal growth incubated for 24 hrs by two fold broth dilution method; format: functional
[13] = test system: Aspergillus fumigatus; assay: Antifungal activity against fluconazole resistant Aspergillus fumigatus GIMCC 3.19 assessed as reduction in fungal growth incubated for 24 hrs by two fold broth dilution method; format: functional
[14] = test system: Cryptococcus neoformans; assay: Antifungal activity against fluconazole resistant Cryptococcus neoformans ATCC 32719 assessed as reduction in fungal growth incubated for 24 hrs by two fold broth dilution method; format: functional
[15] = test system: Candida albicans; assay: Antifungal activity against micafungin resistant Candida albicans ATCC 76615 assessed as reduction in fungal growth incubated for 24 hrs by two fold broth dilution method; format: functional
[16] = test system: Candida albicans; assay: Antifungal activity against Candida albicans ATCC 76615 incubated for 72 hrs in presence of fluconazole by checker board assay; format: functional
[17] = test system: Aspergillus flavus; assay: Antifungal activity against Aspergillus flavus ATCC 16870 incubated for 72 hrs in presence of fluconazole by checker board assay; format: functional
[18] = test system: Aspergillus fumigatus; assay: Antifungal activity against Aspergillus fumigatus GIMCC 3.19 incubated for 72 hrs in presence of fluconazole by checker board assay; format: functional
[19] = test system: Cryptococcus neoformans; assay: Antifungal activity against Cryptococcus neoformans ATCC 32719 incubated for 72 hrs in presence of fluconazole by checker board assay; format: functional
[20] = test system: Candida albicans; assay: Antifungal activity against Candida albicans ATCC 76615 assessed as fluconazole MIC incubated for 72 hrs by checker board assay; format: functional
[21] = test system: Aspergillus flavus; assay: Antifungal activity against Aspergillus flavus ATCC 16870 assessed as fluconazole MIC incubated for 72 hrs by checker board assay; format: functional
[22] = test system: Aspergillus fumigatus; assay: Antifungal activity against Aspergillus fumigatus GIMCC 3.19 assessed as fluconazole MIC incubated for 72 hrs by checker board assay; format: functional
[23] = test system: Cryptococcus neoformans; assay: Antifungal activity against Cryptococcus neoformans ATCC 32719 assessed as fluconazole MIC incubated for 72 hrs by checker board assay; format: functional
[24] = test system: Cryptococcus neoformans; assay: Synergistic antifungal activity against Cryptococcus neoformans ATCC 32719 assessed as fractional inhibitory concentration index incubated for 72 hrs in presence of fluconazole by checker board assay; format: functional
[25] = test system: Candida albicans; assay: Synergistic antifungal activity against Candida albicans ATCC 76615 assessed as fractional inhibitory concentration index incubated for 72 hrs in presence of fluconazole by checker board assay; format: functional
[26] = test system: Aspergillus flavus; assay: Synergistic antifungal activity against Aspergillus flavus ATCC 16870 assessed as fractional inhibitory concentration index incubated for 72 hrs in presence of fluconazole by checker board assay; format: functional
[27] = test system: Aspergillus fumigatus; assay: Synergistic antifungal activity against Aspergillus fumigatus GIMCC 3.19 assessed as fractional inhibitory concentration index incubated for 72 hrs in presence of fluconazole by checker board assay; format: functional
[28] = test system: Candida albicans; assay: Antifungal activity against Candida albicans ATCC 76615 incubated for 72 hrs in presence of polyoxin B by checker board assay; format: functional
[29] = test system: Aspergillus flavus; assay: Antifungal activity against Aspergillus flavus ATCC 16870 incubated for 72 hrs in presence of polyoxin B by checker board assay; format: functional
[30] = test system: Aspergillus fumigatus; assay: Antifungal activity against Aspergillus fumigatus GIMCC 3.19 incubated for 72 hrs in presence of polyoxin B by checker board assay; format: functional
[31] = test system: Cryptococcus neoformans; assay: Antifungal activity against Cryptococcus neoformans ATCC 32719 incubated for 72 hrs in presence of polyoxin B by checker board assay; format: functional
[32] = test system: Candida albicans; assay: Synergistic antifungal activity against Candida albicans ATCC 76615 assessed as fractional inhibitory concentration index incubated for 72 hrs in presence of polyoxin B by checker board assay; format: functional
[33] = test system: Aspergillus flavus; assay: Synergistic antifungal activity against Aspergillus flavus ATCC 16870 assessed as fractional inhibitory concentration index incubated for 72 hrs in presence of polyoxin B by checker board assay; format: functional
[34] = test system: Aspergillus fumigatus; assay: Synergistic antifungal activity against Aspergillus fumigatus GIMCC 3.19 assessed as fractional inhibitory concentration index incubated for 72 hrs in presence of polyoxin B by checker board assay; format: functional
[35] = test system: Cryptococcus neoformans; assay: Synergistic antifungal activity against Cryptococcus neoformans ATCC 32719 assessed as fractional inhibitory concentration index incubated for 72 hrs in presence of polyoxin B by checker board assay; format: functional
[36] = test system: Candida albicans; assay: Antifungal activity against Candida albicans ATCC 76615 assessed as polyoxin B MIC incubated for 72 hrs by checker board assay; format: functional
[37] = test system: Aspergillus flavus; assay: Antifungal activity against Aspergillus flavus ATCC 16870 assessed as polyoxin B MIC incubated for 72 hrs by checker board assay; format: functional
[38] = test system: Aspergillus fumigatus; assay: Antifungal activity against Aspergillus fumigatus GIMCC 3.19 assessed as polyoxin B MIC incubated for 72 hrs by checker board assay; format: functional
[39] = test system: Cryptococcus neoformans; assay: Antifungal activity against Cryptococcus neoformans ATCC 32719 assessed as polyoxin B MIC incubated for 72 hrs by checker board assay; format: functional

Compound | inhibition [1] | IC50 [2] | MIC [3] | MIC [4] | MIC [5] | MIC [6] | MIC [7] | MIC [8] | MIC [9] | MIC [10] | MIC [11] | MIC [12] | MIC [13] | MIC [14] | MIC [15] | MIC [16] | MIC [17] | MIC [18] | MIC [19] | MIC [20] | other results
O=C(/C=C/C(=O)N1CCCC12Cc1ccccc1NC2=O)Nc1ccc(Cl)c(F)c1 (configuration not stated) | 82.6% | 110 µM | 2 mg/L (≈ 4.67 µM) | 4 mg/L (≈ 9.35 µM) | 4 mg/L (≈ 9.35 µM) | 8 mg/L (≈ 18.7 µM) | 16 mg/L | 64 mg/L | 32 mg/L | 64 mg/L | 32 mg/L (≈ 74.8 µM) | 32 mg/L (≈ 74.8 µM) | 128 mg/L (≈ 299 µM) | 256 mg/L (≈ 598 µM) | 32 mg/L (≈ 74.8 µM) | 0.5 mg/L | 2 mg/L | 1 mg/L | 4 mg/L | 1 mg/L | MIC [21]: 1 mg/L; MIC [22]: 1 mg/L; MIC [23]: 8 mg/L; fractional inhibitory concentration index (FICI) [24]: 1.5; fractional inhibitory concentration index (FICI) [25]: 0.5; fractional inhibitory concentration index (FICI) [26]: 0.63; fractional inhibitory concentration index (FICI) [27]: 0.5; MIC [28]: 2 mg/L; MIC [29]: 4 mg/L; MIC [30]: 2 mg/L; MIC [31]: 4 mg/L; fractional inhibitory concentration index (FICI) [32]: 2; fractional inhibitory concentration index (FICI) [33]: 2; fractional inhibitory concentration index (FICI) [34]: 0.75; fractional inhibitory concentration index (FICI) [35]: 0.75; MIC [36]: 8 mg/L; MIC [37]: 8 mg/L; MIC [38]: 2 mg/L; MIC [39]: 4 mg/L
O=C(/C=C/C(=O)N1CCCC12Cc1ccccc1NC2=O)Nc1ccc(F)cc1 (configuration not stated) | 77.9% | 130 µM | 4 mg/L (≈ 10.2 µM) | 8 mg/L (≈ 20.3 µM) | 8 mg/L (≈ 20.3 µM) | 8 mg/L (≈ 20.3 µM) | 32 mg/L | 64 mg/L | 128 mg/L | 64 mg/L | 64 mg/L (≈ 163 µM) | 32 mg/L (≈ 81.3 µM) | 256 mg/L (≈ 651 µM) | 256 mg/L (≈ 651 µM) | 64 mg/L (≈ 163 µM) | 2 mg/L | 4 mg/L | 2 mg/L | 2 mg/L | 1 mg/L | MIC [21]: 2 mg/L; MIC [22]: 2 mg/L; MIC [23]: 4 mg/L; fractional inhibitory concentration index (FICI) [24]: 0.75; fractional inhibitory concentration index (FICI) [25]: 0.75; fractional inhibitory concentration index (FICI) [26]: 0.75; fractional inhibitory concentration index (FICI) [27]: 0.75; MIC [28]: 1 mg/L; MIC [29]: 8 mg/L; MIC [30]: 4 mg/L; MIC [31]: 8 mg/L; fractional inhibitory concentration index (FICI) [32]: 0.75; fractional inhibitory concentration index (FICI) [33]: 1.5; fractional inhibitory concentration index (FICI) [34]: 0.75; fractional inhibitory concentration index (FICI) [35]: 1.5; MIC [36]: 4 mg/L; MIC [37]: 4 mg/L; MIC [38]: 2 mg/L; MIC [39]: 8 mg/L
O=C(/C=C/C(=O)N1CCCC12Cc1ccccc1NC2=O)Nc1ccccc1[N+](=O)[O-] (configuration not stated) | 80.9% | 110 µM | 4 mg/L (≈ 9.51 µM) | 4 mg/L (≈ 9.51 µM) | 4 mg/L (≈ 9.51 µM) | 16 mg/L (≈ 38.1 µM) | 32 mg/L | 64 mg/L | 32 mg/L | 64 mg/L | 64 mg/L (≈ 152 µM) | 64 mg/L (≈ 152 µM) | 64 mg/L (≈ 152 µM) | 64 mg/L (≈ 152 µM) | 64 mg/L (≈ 152 µM) | 2 mg/L | 2 mg/L | 1 mg/L | 8 mg/L | 2 mg/L | MIC [21]: 2 mg/L; MIC [22]: 2 mg/L; MIC [23]: 4 mg/L; fractional inhibitory concentration index (FICI) [24]: 1; fractional inhibitory concentration index (FICI) [25]: 1; fractional inhibitory concentration index (FICI) [26]: 0.75; fractional inhibitory concentration index (FICI) [27]: 0.75; MIC [28]: 2 mg/L; MIC [29]: 4 mg/L; MIC [30]: 2 mg/L; MIC [31]: 4 mg/L; fractional inhibitory concentration index (FICI) [32]: 1; fractional inhibitory concentration index (FICI) [33]: 1.5; fractional inhibitory concentration index (FICI) [34]: 1.5; fractional inhibitory concentration index (FICI) [35]: 0.75; MIC [36]: 4 mg/L; MIC [37]: 4 mg/L; MIC [38]: 8 mg/L; MIC [39]: 8 mg/L
